From patent publication US8183235B2, “Dihydronaphthalene compound and use thereof” (Tokyo University of Science Educational Foundation …, priority 2007, dated 2012)
Like-named read-outs stand apart in the source and are kept apart here.

Legend:
[1] = molecular target: 20S proteasome chymotrypsin-like activity (Homo sapiens, UniProt P28074); test: Chymotrypsin-like activity inhibition test; assay type: biochemical; conditions: for remaining activity at 10 µM: read-out: % Control, Chymotrypsin-like Activity
[2] = molecular target: 20S proteasome caspase-like activity (Homo sapiens, UniProt P28072); test: Caspase-like activity inhibition test; assay type: biochemical; conditions: for remaining activity at 10 µM: read-out: % Control, Caspase-like Activity
[3] = molecular target: 20S proteasome trypsin-like activity (Homo sapiens, UniProt Q99436); test: Trypsin-like activity inhibition test; assay type: biochemical; conditions: for remaining activity at 10 µM: read-out: % Control, Trypsin-like Activity
Cathepsin B = test: Cathepsin-like activity inhibition test; assay type: biochemical
Procedure: Cathepsin-Like Activity Inhibition Test
(§1) 1) To 20S proteasome, naforidaifen B adjusted to a concentration of 10 μM was added, and incubated at 30° C. for 10 min.
2) To the above test system, fluorescence labeled cathepsin including a 20S proteasome segmenting sequence was added, and reacted for 1 hr at 30° C.
(§2) 3) The fluorescent substance (AMC) released by the above reaction was excited with 360 nm light and assayed with 460 nm light.
(§3) 4) A test system to which naforidaifen B was not added was measured in the same way as (1) to (3) above, and the enzyme activity for the case of using naforidaifen B was measured.
(§4) 5) Stepwise diluted solutions containing naforidaifen B were prepared, and after carrying out the same evaluations as in (1) to (4), the 50% inhibition concentration (IC50) was determined.
6) As a positive control of the enzyme activity, the known proteasome inhibitor Clasto-Lactacystin β-Lactone (Lactacystin activator) and MGI32 were evaluated with the steps (1) to (5).

α-chymotrypsin = α-chymotrypsin (Bos taurus, UniProt P00766); test: α-Chymotrypsin-like activity inhibition test; assay type: biochemical
Procedure: α-Chymotrypsin-Like Activity Inhibition Test
as §1
2) To the above test system, fluorescence labeled α-chymotrypsin including a 20S proteasome segmenting sequence was added, and reacted for 1 hr at 30° C.
as §2, §3, §4
6) As a positive control of the enzyme activity, the well-known proteasome inhibitor Clasto-Lactacystin β-Lactone (Lactacystin activator) and MGI32 were evaluated with the steps (1) to (5).

20S proteasome = 20S proteasome (Homo sapiens, UniProt P28072+P28074+Q99436); test: Proteasome inhibition activity, overall judgement; assay type: biochemical; conditions: for Proteasome selectivity: judgement; for The evaluations (proteasome inhibition activity): overall judgement positive/negative
SF-268 = test: Inhibition of propagation of central nervous system cancer cells (sulforhodamin B); assay type: cell-based; conditions: Homo sapiens, 48 h; SF-268, two days of cultivation
Excerpt: (§5) As a comparison for the inhibition activity, tamoxifen citrate (TAM) was used. In the Table, the concentration units are μM.

SF-295 = test: as above; assay type: cell-based; conditions: Homo sapiens, 48 h; SF-295, two days of cultivation
Excerpt: as §5

SF-539 = test: as above; assay type: cell-based; conditions: Homo sapiens, 48 h; SF-539, two days of cultivation
Excerpt: as §5

SNB-75 = test: as above; assay type: cell-based; conditions: Homo sapiens, 48 h; SNB-75, two days of cultivation
Excerpt: as §5

SNB-78 = test: as above; assay type: cell-based; conditions: Homo sapiens, 48 h; SNB-78, two days of cultivation
Excerpt: as §5

U251 = test: as above; assay type: cell-based; conditions: Homo sapiens, U-251, 48 h; U251, two days of cultivation
Excerpt: as §5

HCC2998 = test: Proliferation inhibition of colon cancer cells; assay type: cell-based; conditions: Homo sapiens, HCC 2998
Procedure: as §5
(§6) In the same way as in Example 9, the proliferation inhibition activity of naforidaifens A to G was measured with respect to five types of colon cancer cells (HCC2998, KM-12, HT-29, HCT-15, and HCT-116). In the Table, the concentration units are μM.

HCT-116 = test: Proliferation inhibition of colon cancer cells; assay type: cell-based; conditions: Homo sapiens
Procedure: as §5, §6

HCT-15 = test: Proliferation inhibition of colon cancer cells; assay type: cell-based; conditions: Homo sapiens
Procedure: as §5, §6

HT-29 = test: Proliferation inhibition of colon cancer cells; assay type: cell-based; conditions: Homo sapiens
Procedure: as §5, §6

KM-12 = test: Proliferation inhibition of colon cancer cells; assay type: cell-based; conditions: Homo sapiens, KM12
Procedure: as §5, §6

OVCAR-3 = test: Proliferation inhibition of ovarian cancer cells; assay type: cell-based; conditions: Homo sapiens
Procedure: as §5
(§7) In the same way as in Example 9, the proliferation inhibition activity of naforidaifens A to G was measured with respect to five types of ovarian cancer cells (OVCAR-3, OVCAR-4, OVCAR-5, OVCAR-8, AND SK-OV-3). In the Table, the concentration units are μM.

OVCAR-4 = test: Proliferation inhibition of ovarian cancer cells; assay type: cell-based; conditions: Homo sapiens
Procedure: as §5, §7

OVCAR-5 = test: Proliferation inhibition of ovarian cancer cells; assay type: cell-based; conditions: Homo sapiens
Procedure: as §5, §7

OVCAR-8 = test: Proliferation inhibition of ovarian cancer cells; assay type: cell-based; conditions: Homo sapiens
Procedure: as §5, §7

SK-OV-3 = test: Proliferation inhibition of ovarian cancer cells; assay type: cell-based; conditions: Homo sapiens
Procedure: as §5, §7

MKN1 = test: Proliferation inhibition of stomach cancer cells; assay type: cell-based; conditions: Homo sapiens, MKN-1
Procedure: as §5
(§8) In the same way as in Example 9, the proliferation inhibition activity of naforidaifens A to G was measured with respect to six types of stomach cancer cells (St-4, MKN1, MKN7, MKN28, MKN45, MKN74). In the Table, the concentration units are μM.

MKN28 = test: Proliferation inhibition of stomach cancer cells; assay type: cell-based; conditions: Homo sapiens, MKN-28
Procedure: as §5, §8

MKN45 = test: Proliferation inhibition of stomach cancer cells; assay type: cell-based; conditions: Homo sapiens, MKN-45
Procedure: as §5, §8

MKN74 = test: Proliferation inhibition of stomach cancer cells; assay type: cell-based; conditions: Homo sapiens, MKN-74
Procedure: as §5, §8

MKN7 = test: Proliferation inhibition of stomach cancer cells; assay type: cell-based; conditions: Homo sapiens, MKN-7
Procedure: as §5, §8

St-4 = test: Proliferation inhibition of stomach cancer cells; assay type: cell-based; conditions: Homo sapiens
Procedure: as §5, §8

colon cancer cells = test: Proliferation inhibition, colon cancer cell panel (summary); assay type: cell-based; conditions: all of the five types of colon cancer cell lines; read-out: effective concentration
Procedure: as §5, §6

ovarian cancer cells = test: Proliferation inhibition, ovarian cancer cell panel (summary); assay type: cell-based; conditions: all of the five types of ovarian cancer cell lines; read-out: effective concentration
Procedure: as §5, §7

stomach cancer cells = test: Proliferation inhibition, stomach cancer cell panel (summary); assay type: cell-based; conditions: all of the six types of stomach cancer cell lines; read-out: effective concentration
Procedure: as §5, §8

[4] = test system: central nervous system cancer cells; test: Proliferation inhibition, central nervous system cancer cell panel (summary); assay type: cell-based; conditions: in general with respect to various central nervous system cancer cells; read-out: cytotoxic activity (extent of effective concentration)
Excerpt: as §5

SMILES	IC50 [1] [µM]	The evaluations (proteasome inhibition activity) (20S proteasome)	GI50 (SF-268) [nM]	GI50 (SF-295) [nM]	GI50 (SF-539) [nM]	GI50 (SNB-75) [nM]	GI50 (SNB-78) [nM]	GI50 (U251) [nM]	GI50 (HCC2998) [nM]	GI50 (HCT-116) [nM]	GI50 (HCT-15) [nM]	GI50 (HT-29) [nM]	GI50 (KM-12) [nM]	GI50 (OVCAR-3) [nM]	GI50 (OVCAR-4) [nM]	GI50 (OVCAR-5) [nM]	GI50 (OVCAR-8) [nM]	GI50 (SK-OV-3) [nM]	GI50 (MKN1) [nM]	GI50 (MKN28) [nM]	also measured
c1ccc(C2=C(c3ccc(OCCN4CCCCCC4)cc3)c3ccc(OCCN4CCCCCC4)cc3CC2)cc1 [Naforidaifen F, 4-[4-(2-hexahydro-1H-azepin-1-yl-ethoxy)phenyl]-7-(2-hexahydro-1H-azepin-1-yl-ethoxy)-3-phenyl-1,2-dihydronaphthalene]	4.3	positive	1700	1780	1660	1740	1700	1480	1070	1230	1230	501	1590	1410	1780	1320	2000	1910	1550	1820	remaining activity at 10 µM [1]: 34.2%; IC50 [2]: 5.1 µM; remaining activity at 10 µM [2]: 39.1%; IC50 [3]: > 10 µM; remaining activity at 10 µM [3]: 251%; Cathepsin B inhibition (Cathepsin B): none; α-chymotrypsin inhibition (α-chymotrypsin): none; Proteasome selectivity (20S proteasome): present; GI50 (MKN45): 1580 nM; GI50 (MKN74): 1170 nM; GI50 (MKN7): 1230 nM; GI50 (St-4): 1580 nM; IC50 (colon cancer cells): 500 to 1500 nM; IC50 (ovarian cancer cells): 1200 to 1900 nM; IC50 (stomach cancer cells): 1100 to 1800 nM
CN(C)CCCOc1ccc(C2=C(c3ccccc3)CCc3cc(OCCCN(C)C)ccc32)cc1 [Naforidaifen G, 4-[4-(3-dimethylamino-1-yl-propoxy)phenyl]-7-(3-dimethylamino-1-yl-propoxy)-3-phenyl-1,2-dihydronaphthalene]	> 10	negative	1580	1780	1480	1620	1780	1480	1290	1100	1290	490	1660	1510	1780	1290	1860	1740	1510	1620	remaining activity at 10 µM ([1]; Concentration 10 μM): 105%; GI50 (MKN45): 1480 nM; GI50 (MKN74): 1150 nM; GI50 (MKN7): 1320 nM; GI50 (St-4): 1480 nM; IC50 [4]: 1400 to 1900 nM; IC50 (ovarian cancer cells): 1200 to 1900 nM; IC50 (stomach cancer cells): 1100 to 1800 nM
c1ccc(C2=C(c3ccc(OCCN4CCCCC4)cc3)c3ccc(OCCN4CCCCC4)cc3CC2)cc1 [Naforidaifen C, 4-[4-(2-piperidine-1-yl-ethoxy)phenyl]-7-(2-piperidine-1-yl-ethoxy)-3-phenyl-1,2-dihydronaphthalene]	3.2	positive	1740	1740	1480	1510	1820	1480	1350	1170	1380	550	1820	1660	2090	1260	2400	2040	1660	2510	remaining activity at 10 µM [1]: 25.9%; IC50 [2]: 5.1 µM; remaining activity at 10 µM [2]: 31.3%; IC50 [3]: > 10 µM; remaining activity at 10 µM [3]: 196%; Cathepsin B inhibition (Cathepsin B): none; α-chymotrypsin inhibition (α-chymotrypsin): none; Proteasome selectivity (20S proteasome): present; GI50 (MKN45): 2140 nM; GI50 (MKN74): 1200 nM; GI50 (MKN7): 1550 nM; GI50 (St-4): 1580 nM; IC50 [4]: 1400 to 1900 nM
